How the values were obtained:
Gli-Luc/MEF cells (Smo) = test: Gli-Luc/MEF assay (Shh-stimulated luciferase reporter under the Gli response element); assay type: cell-based, mouse; settings: Mus musculus, MEF, 48 h
Protocol: The Gli-Luc/MEF cells obtained from Gli-Luc transgenic mice (Pfizer CoE, Genetically Modified Mice) contain a luciferase reporter gene under the control of the Gli response element. Luciferase activity stimulated with Sonic hedgehog ligand was inhibited by Smo inhibitors, and IC50 was subsequently calculated.
Plates were incubated at 37° C. and 5% CO2 overnight. On day two, cells were dosed with test compounds at a final concentration ranging from […] to 50 μM at a 3-time series dilution. Immediately after dosing cells with compounds, recombinant mouse sonic hedgehog (Shh, R&D Systems 464-SH) was added to a final concentration of 2 μg/mL. The cells were incubated with compounds and Shh for 48 hours at 37° C. and 5% CO2. Luciferase assays were conducted on Day 4 using the Bright-Glo Luciferase assay system (Promega E2620) according to Promega's protocol. Briefly, Bright-Glo luciferase reagent was made up and 25 uL were added to each well of the 384-well plate containing media. Plates were kept at room temperature for 5 minutes, and then read on an Envision Luminescence plate reader (Perkin-Elmer). IC50 of the inhibition was calculated by using GraphPad Prism.

[1] = biological target: T1, human Smo (amino acids 181-787) (Homo sapiens, UniProt Q99835); test: Smo radioligand competition binding assay (displacement of 3H-PF-03451358 from HEK293 membranes); settings: for inhibition at 0.05 µM: 0.05 μM test compound, displacement of 3H-PF-03451358, read-out: SMO % inh. @ 0.05 μM; for IC50: radioligand competition binding
T1 construct: expressed in transfected cells; membrane preparation
T1 sequence (Q99835 181-787): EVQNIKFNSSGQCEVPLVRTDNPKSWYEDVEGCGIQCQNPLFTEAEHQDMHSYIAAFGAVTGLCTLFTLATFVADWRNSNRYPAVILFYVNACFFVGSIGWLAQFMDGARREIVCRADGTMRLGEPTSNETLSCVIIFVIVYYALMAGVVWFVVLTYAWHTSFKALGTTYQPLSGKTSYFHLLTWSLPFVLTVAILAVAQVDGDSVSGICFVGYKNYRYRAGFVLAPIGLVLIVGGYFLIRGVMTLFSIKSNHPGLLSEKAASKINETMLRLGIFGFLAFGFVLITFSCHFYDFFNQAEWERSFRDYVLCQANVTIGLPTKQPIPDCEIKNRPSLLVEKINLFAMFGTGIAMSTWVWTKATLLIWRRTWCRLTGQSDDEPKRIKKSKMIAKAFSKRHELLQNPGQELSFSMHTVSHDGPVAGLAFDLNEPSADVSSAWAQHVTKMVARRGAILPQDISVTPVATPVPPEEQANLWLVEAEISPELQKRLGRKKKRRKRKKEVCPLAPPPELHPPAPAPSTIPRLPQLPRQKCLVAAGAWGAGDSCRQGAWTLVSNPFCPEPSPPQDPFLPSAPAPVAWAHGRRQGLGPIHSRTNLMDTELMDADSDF
Protocol: Membranes were prepared from a stable cell line created in HEK293FlpIn-TetR cells (Invitrogen) using FIp recombinase-mediated insertion of the pSecTag-FRT/V5-His vector containing a cDNA encoding amino acids 181-787 of human Smo fused to the murine lgk leader sequence to produce a cell surface expressed Smo 181-781 protein. Hygromycin-resistant clones were obtained and stained for LacZ expression (no expression indicates a correct knock-in of my fusion cDNA). LacZ-negative cells were analyzed for binding tritiated Smo antagonist PF-03451358. For membrane preparation, the HEK293 cells expressing Smo 181-781 were grown to 90% confluence in nine to fifteen 245 mm×245 mm×22 mm dishes, washed with Dulbecco's PBS (15 ml per dish) and harvested via scraping in 10 ml of DPBS. The cells were collected and centrifuged at 1500 rpm (400×g) for 10 min at 4° C. The cell pellets were re-suspended in 40 ml of cold DPBS and washed by centrifugation at 2300 rpm (950×g max) for 10 minutes at 4° C. The supernatant was aspirated and the cell pellet was snap frozen in a methanol/dry ice bath and stored at −70° C. For membrane preparation, 15 ml of Membrane Preparation Buffer (50 mM Tris-HCl pH 7.5, 250 mM sucrose with Roche complete protease cocktail tablets) is added to the tube containing the cell pellet, then cells are rapidly thawed, and homogenized using an Ultra-Turrax T8 (IKA Labortechnik) set on “6” for 15 seconds for 5-6 times in icy water bath. This homogenate was diluted up to 50 ml using Membrane Preparation Buffer and centrifuged at 35,000 rpm in a Beckman Ti45 rotor (140,000×g) for 35 minutes at 4° C. followed by aspiration of the supernatant and re-suspension of the pellet in 5 ml of Assay Buffer (50 mM Tris-HCl pH 7.5, 100 mM NaCl, 25 mM MgCl2, 1 mM EDTA, and 0.1% protease free bovine serum albumin). The re-suspended pellet is then homogenized in a glass tissue grinder. The re-suspended membranes are aliquoted (0.5 ml aliquots), snap frozen and stored at −70° C. Total protein in the membrane preparation is determined using the Pierce BCA protein assay (Pierce Chemical).
For the binding competition assay, 100 μl of Assay Buffer is added to all the wells of a 96 well GF/B filter plate (Millipore MultiScreen-HTS-FB cat# MSFBN6B50) for 10 minutes to pre-wet the filter prior to evacuation of the buffer (8 inches Hg for 8 seconds). To the pre-wet wells is added: 20 μl of Assay Buffer, 10 μl diluted test agent, 20 μl of ^3H-PF-3451358 (15 nM stock solution), and 50 μl of membrane preparation (40 μg total protein per well). The plates are sealed and mixed at room temperature for 5 min, incubated at room temperature for 2 hours, then washed 5 times with 100 μl/each of wash buffer and vacuum dried for 8 seconds at 8 inch Hg. The plate is then dried for one hour in a 60° C. oven prior to the addition of 45 μl of Microscint 20 (Packard, #6013621) to each well and incubation at RT for 30 minutes to 1 hour. The plate is counted in a TopCount scintillation counter (Perkin Elmer).
Data analysis uses Excel for % Inhibition and Graphpad Prism for IC50 calculation. Total binding (TB, in the absence of inhibitors)=average of ^3H PF-03451358 3 nM+SMO membrane (40 μg/wells (approx 5000-7000 CPM). Non-specific binding (NSB)=average of ^3H PF-03451358 (3 nM)+cold PF-03451358 (30 μM)+SMO membrane (approx 600-1200 CPM). Specific binding (SB)=(total binding−non-specific binding). % Inhibition=[1−(compound Specific binding/control Specific binding)]×100%. IC50 is calculated by fitting the data to the four parameter sigmoidal dose-response curve (variable slope) Y=Bottom+(Top-Bottom)/(1+10̂((LogEC50−X)*HillSlope)). X is the logarithm of the inhibitor concentration. Y is the response; Y starts at Bottom and goes to Top with a sigmoid shape.

Structure (SMILES) | IC50 (Gli-Luc/MEF cells (Smo)) | inhibition at 0.05 µM [1] | IC50 [1]
Cn1c(-c2cc(N3CCC(N4CCNC(=O)CC4)CC3)ncc2Cl)nc2ccccc21 [Example A-91, 1-{1-[5-chloro-4-(1-methyl-1H-benzimidazol-2-yl)pyridin-2-yl]piperidin-4-yl}-1,4-diazepan-5-one] | 16 nM | 88% | 55 nM
CC(=O)N1CCN(c2cc(-c3nc4ccccc4n3C)c(F)cn2)CC1 [Example D-1, 2-[2-(4-acetylpiperazin-1-yl)-5-fluoropyridin-4-yl]-1-methyl-1H-benzimidazole] | 27 nM | 97% | 22 nM
Cn1c(-c2cc(N3CCC(S(C)(=O)=O)CC3)ncc2Cl)nc2ccccc21 [Example A-20, 2-{5-chloro-2-[4-(methylsulfonyl)piperidin-1-yl]pyridin-4-yl}-1-methyl-1H-benzimidazole] | 8 nM | 87% | 19 nM
Cn1c(-c2cc(N3CCC(C#N)CC3)ncc2Cl)nc2ccccc21 [Example A-75, 1-[5-chloro-4-(1-methyl-1H-benzimidazol-2-yl)pyridin-2-yl]piperidine-4-carbonitrile] | 11 nM | 92% | 23 nM
Cn1c(-c2cc(N3CCC(O)CC3)ncc2Cl)nc2ccccc21 [Example A-25, 1-[5-chloro-4-(1-methyl-1H-benzimidazol-2-yl)pyridin-2-yl]piperidin-4-ol] | 7 nM | 91% | 8 nM
CNC(=O)NC1CCN(c2cc(-c3nc4ccccc4n3C)c(F)cn2)CC1 [Example D-13, 1-{1-[5-fluoro-4-(1-methyl-1H-benzimidazol-2-yl)pyridin-2-yl]piperidin-4-yl}-3-methylurea] | 13.4 nM | 97% | 23 nM
CC(=O)N1CCN(c2cc(-c3nc4ccccc4n3C)c(Cl)cn2)C[C@@H]1C [Example A-162, 2-{2-[(3S)-4-acetyl-3-methylpiperazin-1-yl]-5-chloropyridin-4-yl}-1-methyl-1H-benzimidazole] | 5 nM | 91% | 7 nM
Cn1c(-c2cc(N3C[C@H]4C[C@@H]3CN4S(C)(=O)=O)ncc2Cl)nc2ccccc21 [Example A-146, 2-{5-chloro-2-[(1R,4R)-5-(methylsulfonyl)-2,5-diazabicyclo[2.2.1]hept-2-yl]pyridin-4-yl}-1-methyl-1H-benzimidazole] | 92 nM | 75% | 202 nM
Cn1c(-c2cc(N3CCN(CCO)CC3)ncc2Cl)nc2ccccc21 [Example A-213, 2-{4-[5-chloro-4-(1-methyl-1H-benzimidazol-2-yl)pyridin-2-yl]piperazin-1-yl}ethanol] | 56.8 nM | 83% | 78 nM
Cn1c(-c2cc(N3CC(O)C3)ncc2Cl)nc2ccccc21 [Example A-94, 1-[5-chloro-4-(1-methyl-1H-benzimidazol-2-yl)pyridin-2-yl]azetidin-3-ol] | 46 nM | 87% | 87 nM
CC(=O)N1[C@@H]2CC[C@H]1CN(c1cc(-c3nc4ccccc4n3C)c(Cl)cn1)C2 [Example A-187, 2-{2-[(1R,5S)-8-acetyl-3,8-diazabicyclo[3.2.1]oct-3-yl]-5-chloropyridin-4-yl}-1-methyl-1H-benzimidazole] | 10 nM | 90% | 27 nM
Cn1c(-c2cc(N3CCC(C(=O)NCC(C)(C)O)CC3)ncc2Cl)nc2ccccc21 [Example A-212, 1-[5-chloro-4-(1-methyl-1H-benzimidazol-2-yl)pyridin-2-yl]-N-(2-hydroxy-2-methylpropyl)piperidine-4-carboxamide] | 29.1 nM | 99% | 12 nM
Cn1c(-c2ccnc(N3CCN(S(C)(=O)=O)CC3)c2)nc2ccccc21 [Example A-21, 1-methyl-2-{2-[4-(methylsulfonyl)piperazin-1-yl]pyridin-4-yl}-1H-benzimidazole] | 90 nM | 78% | 152 nM

From patent publication US20120157471A1, “BENZIMIDAZOLE DERIVATIVES” (PFIZER INC., priority 2009, published 2012)
